Data taken from ChEMBL document CHEMBL4665643 (Bioorg Med Chem Lett, 2019).

Target: Tyrosine-protein kinase receptor UFO (Homo sapiens) (UniProt P30530)
Test: Inhibition of recombinant human GST-tagged full length AXL expressed in insect expression system using Tyr 06 as substrate at 0.1 uM incubated for 60 mins by Z'-Lyte assay relative to control

Tyrosine-protein kinase receptor UFO (Homo sapiens), sequence (P30530 whole entry): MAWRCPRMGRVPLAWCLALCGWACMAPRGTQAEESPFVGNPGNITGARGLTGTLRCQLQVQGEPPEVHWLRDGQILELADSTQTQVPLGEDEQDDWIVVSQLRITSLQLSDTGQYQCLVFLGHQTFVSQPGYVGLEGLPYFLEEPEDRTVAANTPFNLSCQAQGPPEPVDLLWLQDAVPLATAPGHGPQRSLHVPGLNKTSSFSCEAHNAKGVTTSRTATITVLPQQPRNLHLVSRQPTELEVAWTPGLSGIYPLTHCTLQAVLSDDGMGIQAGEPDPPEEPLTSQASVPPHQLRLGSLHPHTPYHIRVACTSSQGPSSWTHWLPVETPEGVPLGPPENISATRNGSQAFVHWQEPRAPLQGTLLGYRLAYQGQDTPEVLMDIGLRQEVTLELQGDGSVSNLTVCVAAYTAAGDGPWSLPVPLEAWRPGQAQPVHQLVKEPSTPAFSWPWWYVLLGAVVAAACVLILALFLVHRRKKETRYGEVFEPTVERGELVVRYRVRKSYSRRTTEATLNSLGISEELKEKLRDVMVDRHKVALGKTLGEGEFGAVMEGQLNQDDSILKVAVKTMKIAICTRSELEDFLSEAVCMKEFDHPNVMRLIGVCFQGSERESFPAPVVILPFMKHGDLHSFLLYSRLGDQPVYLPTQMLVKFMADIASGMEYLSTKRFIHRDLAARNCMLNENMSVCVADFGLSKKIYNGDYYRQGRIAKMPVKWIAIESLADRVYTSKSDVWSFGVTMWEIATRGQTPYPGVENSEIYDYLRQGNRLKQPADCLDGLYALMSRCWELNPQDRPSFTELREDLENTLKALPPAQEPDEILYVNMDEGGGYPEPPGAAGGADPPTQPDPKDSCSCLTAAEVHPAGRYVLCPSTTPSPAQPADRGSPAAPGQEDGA

Row | Structure (SMILES) | inhibition
1 | Cn1cc(NC(=O)c2cnn3cccnc23)c(-c2cc(Cl)ccc2OC(F)F)n1 | 5%
2 | O=C(Nc1c[nH]nc1-c1cc2ccccc2cc1OC(F)F)c1cnn2cccnc12 | 0%
